Source: patent publication US20200000752A1, “Method for Treating Epilepsy” (Vanderbilt University, priority 2016, published 2020)
Entries after “also recorded” stand apart in the source; their conditions may differ.

Experiments:
Scn1a^+/− mice = conditions: for Number SWDs: SWDs over 1 sec, 30 min after PTZ 50 mg/kg, n=2, celastrol 0.3 mg/kg intermittent (8th day of drug holiday), diazepam 0.3 mg/kg, stiripentol 150 mg/kg, saline 21
CYP 1A2 [1] = molecular target: T1, CYP 1A2 (Homo sapiens, UniProt P05177); assay: biochemical
CYP 2C19 [2] = molecular target: T2, CYP 2C19 (Homo sapiens, UniProt P33261); assay: biochemical
CYP 2C9 = CYP 2C9 (Homo sapiens, UniProt P11712); assay: biochemical
CYP 2C19 [3] = molecular target: T2, CYP 2C19
CYP 1A2 [4] = molecular target: T1, CYP 1A2; assay: CYP inhibition, 1A2
[5] = tested on: cytochrome P450 enzymes (CYPs); conditions: cited from earlier work
CYP 2B6 = CYP 2B6 (Homo sapiens, UniProt P20813); assay: biochemical
CYP 2D6 = CYP 2D6 (Homo sapiens, UniProt P10635); assay: biochemical
CYP 2C8 = CYP 2C8 (Homo sapiens, UniProt P10632); assay: biochemical
MDCKII cells = assay: MDCKII bidirectional assay; assay type: in vitro ADME
From the text: MDCKII bidirectional assay was run in collaboration with Dr. Shaun Stauffer in Vanderbilt Institute of Chemical Biology (VICB) synthesis core who is a consultant on this project.

T1 sequence (P05177 whole entry): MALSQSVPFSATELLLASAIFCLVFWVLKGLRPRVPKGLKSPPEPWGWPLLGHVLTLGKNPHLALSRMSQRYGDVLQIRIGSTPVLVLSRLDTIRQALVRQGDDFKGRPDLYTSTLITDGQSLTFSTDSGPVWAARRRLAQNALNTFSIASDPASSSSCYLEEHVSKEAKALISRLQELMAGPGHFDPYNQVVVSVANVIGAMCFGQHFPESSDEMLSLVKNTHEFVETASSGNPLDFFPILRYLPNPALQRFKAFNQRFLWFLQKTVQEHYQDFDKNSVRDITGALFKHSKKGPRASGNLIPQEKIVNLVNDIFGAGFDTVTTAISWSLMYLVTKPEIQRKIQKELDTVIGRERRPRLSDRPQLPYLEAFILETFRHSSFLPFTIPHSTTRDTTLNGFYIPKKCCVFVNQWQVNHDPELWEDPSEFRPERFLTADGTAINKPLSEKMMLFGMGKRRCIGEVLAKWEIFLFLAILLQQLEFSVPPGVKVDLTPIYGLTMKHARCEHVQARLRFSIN
T2 sequence (P33261 whole entry): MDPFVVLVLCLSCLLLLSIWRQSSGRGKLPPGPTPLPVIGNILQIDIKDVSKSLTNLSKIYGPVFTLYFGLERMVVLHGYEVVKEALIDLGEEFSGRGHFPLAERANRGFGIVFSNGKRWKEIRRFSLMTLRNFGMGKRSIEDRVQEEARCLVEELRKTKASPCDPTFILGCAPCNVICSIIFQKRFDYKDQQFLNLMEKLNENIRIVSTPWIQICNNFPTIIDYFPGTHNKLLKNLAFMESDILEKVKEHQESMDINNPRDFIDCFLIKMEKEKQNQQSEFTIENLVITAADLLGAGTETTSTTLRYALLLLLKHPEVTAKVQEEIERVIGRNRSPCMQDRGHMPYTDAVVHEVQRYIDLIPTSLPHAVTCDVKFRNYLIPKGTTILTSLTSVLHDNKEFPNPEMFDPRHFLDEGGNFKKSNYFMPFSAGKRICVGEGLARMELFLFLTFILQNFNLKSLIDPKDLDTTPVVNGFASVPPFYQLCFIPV
Chain of CYP 2D6 (P10635 whole entry): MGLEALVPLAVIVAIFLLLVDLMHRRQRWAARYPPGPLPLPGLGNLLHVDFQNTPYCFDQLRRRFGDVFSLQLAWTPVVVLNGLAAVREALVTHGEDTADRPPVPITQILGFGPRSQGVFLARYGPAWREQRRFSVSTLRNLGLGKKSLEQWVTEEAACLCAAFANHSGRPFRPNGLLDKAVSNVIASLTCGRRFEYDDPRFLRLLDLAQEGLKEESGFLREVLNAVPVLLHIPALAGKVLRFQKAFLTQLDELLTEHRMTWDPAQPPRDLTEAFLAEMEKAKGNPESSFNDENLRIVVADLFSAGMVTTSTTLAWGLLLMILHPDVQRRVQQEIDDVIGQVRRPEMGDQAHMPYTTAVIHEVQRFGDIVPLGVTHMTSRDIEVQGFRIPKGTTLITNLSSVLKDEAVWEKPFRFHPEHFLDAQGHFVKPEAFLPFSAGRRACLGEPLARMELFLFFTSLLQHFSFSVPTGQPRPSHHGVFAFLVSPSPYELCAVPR
Chain of CYP 2B6 (P20813 whole entry): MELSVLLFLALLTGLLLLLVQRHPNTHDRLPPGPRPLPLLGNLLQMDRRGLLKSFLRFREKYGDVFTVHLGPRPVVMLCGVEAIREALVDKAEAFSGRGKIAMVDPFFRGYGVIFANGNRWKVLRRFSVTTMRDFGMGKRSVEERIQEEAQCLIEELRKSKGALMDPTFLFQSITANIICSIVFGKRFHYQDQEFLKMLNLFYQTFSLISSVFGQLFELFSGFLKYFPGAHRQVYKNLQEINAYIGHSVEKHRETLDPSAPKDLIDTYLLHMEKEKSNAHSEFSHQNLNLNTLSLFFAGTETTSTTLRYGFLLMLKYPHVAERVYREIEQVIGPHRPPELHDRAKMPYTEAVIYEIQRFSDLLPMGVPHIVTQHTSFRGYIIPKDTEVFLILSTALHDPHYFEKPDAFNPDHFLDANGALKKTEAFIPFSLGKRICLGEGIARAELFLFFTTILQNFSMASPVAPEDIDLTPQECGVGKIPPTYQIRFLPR
Chain of CYP 2C9 (P11712 whole entry): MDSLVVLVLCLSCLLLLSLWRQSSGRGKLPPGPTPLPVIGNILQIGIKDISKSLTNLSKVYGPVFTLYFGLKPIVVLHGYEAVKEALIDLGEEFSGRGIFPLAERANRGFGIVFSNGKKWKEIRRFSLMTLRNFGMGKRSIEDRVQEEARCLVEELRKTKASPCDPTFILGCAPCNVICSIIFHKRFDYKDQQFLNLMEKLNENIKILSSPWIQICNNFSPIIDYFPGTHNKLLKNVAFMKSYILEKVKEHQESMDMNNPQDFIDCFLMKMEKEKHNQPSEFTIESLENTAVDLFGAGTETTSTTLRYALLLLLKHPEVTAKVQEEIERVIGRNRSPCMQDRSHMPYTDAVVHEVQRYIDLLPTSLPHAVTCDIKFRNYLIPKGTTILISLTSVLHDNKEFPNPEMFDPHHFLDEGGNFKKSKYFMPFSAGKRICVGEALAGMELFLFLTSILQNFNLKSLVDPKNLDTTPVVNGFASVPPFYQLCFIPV
Chain of CYP 2C8 (P10632 whole entry): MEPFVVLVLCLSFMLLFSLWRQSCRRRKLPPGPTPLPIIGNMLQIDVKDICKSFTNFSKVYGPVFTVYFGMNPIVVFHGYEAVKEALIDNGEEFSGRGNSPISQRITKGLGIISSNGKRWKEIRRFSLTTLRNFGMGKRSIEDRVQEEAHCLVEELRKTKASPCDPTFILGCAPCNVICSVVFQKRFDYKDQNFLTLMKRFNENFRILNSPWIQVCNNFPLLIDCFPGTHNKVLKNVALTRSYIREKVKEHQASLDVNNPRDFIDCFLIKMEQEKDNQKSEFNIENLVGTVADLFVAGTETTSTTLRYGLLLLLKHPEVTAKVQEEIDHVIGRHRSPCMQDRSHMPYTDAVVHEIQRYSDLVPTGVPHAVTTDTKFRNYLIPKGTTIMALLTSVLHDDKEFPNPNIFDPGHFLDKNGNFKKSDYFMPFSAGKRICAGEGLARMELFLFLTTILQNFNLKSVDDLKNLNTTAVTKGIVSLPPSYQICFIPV

SMILES | Number SWDs (Scn1a^+/− mice) | IC50 (CYP 1A2 [1]) | IC50 (CYP 2C19 [2]) | appearance and mortality (Scn1a^+/− mice; mouse, in vivo, 300 mg/kg) | IC50 (CYP 2C9) | inhibition of 2C19, in words (CYP 2C19 [3]) | inhibition of 1A2, in words (CYP 1A2 [4]) | CYP inhibition as reported in the literature [5] | IC50 (CYP 2B6) | IC50 (CYP 2D6) | IC50 (CYP 2C8) | permeability in MDCK II bidirectional assay, in words (MDCKII cells)
CN1C(=O)CN=C(c2ccccc2)c2cc(Cl)ccc21 [Diazepam] | 8 |  |  |  |  |  |  |  |  |  |  | 
CC(C)(C)C(O)/C=C/c1ccc2c(c1)OCO2 (stereo not shown) [Stiripentol] | 11 | 1.26 µM | 1.84 µM | appeared lethargic and had increased mortality | > 10 µM | potent inhibitor; also recorded: very potent inhibitor | potent inhibitor; also recorded: very potent inhibitor | inhibit CYPs including 1A2, 2C9, 2C19, 2D6 and 3A4 | 8.82 µM | > 10 µM | > 10 µM | 
COc1cc(/C=C/C(=O)CC(=O)/C=C/c2ccc(O)c(OC)c2)ccc1O [curcumin, reference compound] |  |  |  |  |  |  |  |  |  |  |  | impermeable
